From ChEMBL document CHEMBL4627323, “Synthesis and anti-OXPHOS, antitumor activities of DLC modified spinosyn derivatives” (Bioorg Med Chem Lett, 2020)
Values belong to the compound of their own block, whether it stands above or below them. Calls of active or inactive are those of the source. No cut-off for these calls is given here.

Key:
MCF7 = assay: Antiproliferative activity against human MCF7 cells incubated for 48 hrs; format: functional, cell-based; settings: MCF7, 48 h
NCI-H460 [1] = assay: Antiproliferative activity against human NCI-H460 cells incubated for 48 hrs; format: functional, cell-based; settings: NCI-H460, 48 h
U-87 MG = assay: Antiproliferative activity against human U87MG cells incubated for 48 hrs; format: functional, cell-based, U-87MG ATCC
HCT-116 = assay: Antiproliferative activity against human HCT116 cells incubated for 48 hrs; format: functional, cell-based; settings: HCT-116, 48 h
NCI-H460 [2] = assay: Induction of apoptosis in human NCI-H460 cells assessed as late apoptotic cells at 4 uM by Annexin V/PI staining based flow cytometric analysis (reference value: 1.17%); format: functional
NCI-H460 [3] = assay: Anti-OXPHOS activity in human NCI-H460 cells assessed as inhibition of oxygen consumption rate at 8 uM by seahorse XFe96 analyser based assay
NCI-H460 [4] = assay: Anti-OXPHOS activity in human NCI-H460 cells assessed as inhibition of oxygen consumption rate at 8 uM in presence of uncoupling agent, FCCP by seahorse XFe96 analyser based assay
[5] = Toxicity in nude mouse xenografted with human NCI-H460 cells assessed as body weight loss at 5 to 10 mg/kg, ip administered every other day for 21 days; format: organism-based; settings: in vivo, 504 h
NCI-H460 [6] = assay: Antitumor activity against human NCI-H460 cells xenografted in nude mouse assessed as decrease in tumor volume at 5 mg/kg, ip administered every other day for 21 days measured every 3 days; format: functional, organism-based
NCI-H460 [7] = assay: Antitumor activity against human NCI-H460 cells xenografted in nude mouse assessed as inhibition of tumor mass at 5 mg/kg, ip administered every other day for 21 days measured every 3 days; format: functional
NCI-H460 [8] = assay: Induction of apoptosis in human NCI-H460 cells by Annexin V/PI staining based flow cytometric analysis; format: functional, cell-based
NCI-H460 [9] = assay: Induction of apoptosis in human NCI-H460 cells assessed as necrotic cells at 4 uM by Annexin V/PI staining based flow cytometric analysis (reference value: 2.75%); format: functional
NCI-H460 [10] = assay: Induction of apoptosis in human NCI-H460 cells assessed as viable cells at 2 uM by Annexin V/PI staining based flow cytometric analysis (reference value: 95.3%); format: functional; settings: read-out: Activity
NCI-H460 [11] = assay: Anti-OXPHOS activity in human NCI-H460 cells assessed as inhibition of mitochondrial oxidative phosphorylation by seahorse XFe96 analyser based assay; settings: Mitochondria
NCI-H460 [12] = assay: Induction of apoptosis in human NCI-H460 cells assessed as necrotic cells at 2 uM by Annexin V/PI staining based flow cytometric analysis (reference value: 2.75%); format: functional
NCI-H460 [13] = assay: Induction of apoptosis in human NCI-H460 cells assessed as early apoptotic cells at 2 uM by Annexin V/PI staining based flow cytometric analysis (reference value: […]); format: functional
NCI-H460 [14] = assay: Induction of apoptosis in human NCI-H460 cells assessed as early apoptotic cells at 4 uM by Annexin V/PI staining based flow cytometric analysis (reference value: […]); format: functional
NCI-H460 [15] = assay: Antiproliferative activity against human NCI-H460 cells assessed as inhibition of cell growth at 32 uM incubated for 3 hrs; format: functional, cell-based
NCI-H460 [16] = assay: Induction of apoptosis in human NCI-H460 cells assessed as late apoptotic cells at 2 uM by Annexin V/PI staining based flow cytometric analysis (reference value: 1.17%); format: functional
[17] = Toxicity in nude mouse xenografted with human NCI-H460 cells assessed as mortality at 10 mg/kg, ip administered every other day for 21 days; format: organism-based; settings: in vivo, 504 h
NCI-H460 [18] = assay: Anti-OXPHOS activity in human NCI-H460 cells assessed as inhibition of oxygen consumption rate at 4 uM incubated for 1 hr by seahorse XFe96 analyser based assay relative to control
NCI-H460 [19] = assay: Induction of apoptosis in human NCI-H460 cells assessed as viable cells at 4 uM by Annexin V/PI staining based flow cytometric analysis (reference value: 95.3%); format: functional; settings: read-out: Activity

SMILES: CC[C@H]1CCC[C@H](OC(=O)C[n+]2ccccc2)[C@@H](C)C(=O)C2=C[C@@H]3[C@@H](C=C[C@@H]4C[C@@H](O[C@@H]5O[C@@H](C)[C@H](OC)[C@@H](OC)[C@H]5OC)C[C@@H]34)[C@@H]2CC(=O)O1
- IC50 (MCF7): > 100 µM

SMILES: CC[C@H]1CCC[C@H](O[C@H]2CC[C@H](N(C)CCCCCC[n+]3ccccc3)[C@@H](C)O2)[C@@H](C)C(=O)C2=C[C@@H]3[C@@H](C=C[C@@H]4C[C@@H](O[C@@H]5O[C@@H](C)[C@H](OC)[C@@H](OC)[C@H]5OC)C[C@@H]34)[C@@H]2CC(=O)O1
- IC50 (MCF7): 4.3 µM
- IC50 (NCI-H460 [1]): 22 µM
- IC50 (U-87 MG): 11.2 µM
- IC50 (HCT-116): 9.8 µM

SMILES: CC[C@H]1CCC[C@H](O[C@H]2CC[C@H](N(C)CCCCCC[n+]3cccc(C(N)=O)c3)[C@@H](C)O2)[C@@H](C)C(=O)C2=C[C@@H]3[C@@H](C=C[C@@H]4C[C@@H](O[C@@H]5O[C@@H](C)[C@H](OC)[C@@H](OC)[C@H]5OC)C[C@@H]34)[C@@H]2CC(=O)O1
- IC50 (MCF7): 30.5 µM

SMILES: CC[C@H]1CCC[C@H](O[C@H]2CC[C@H](N(C)CCC[P+](c3ccccc3)(c3ccccc3)c3ccccc3)[C@@H](C)O2)[C@@H](C)C(=O)C2=C[C@@H]3[C@@H](C=C[C@@H]4C[C@@H](O[C@@H]5O[C@@H](C)[C@H](OC)[C@@H](OC)[C@H]5OC)C[C@@H]34)[C@@H]2CC(=O)O1
- IC50 (MCF7): 4.1 µM
- IC50 (NCI-H460 [1]): 2.7 µM
- IC50 (U-87 MG): 1.3 µM
- IC50 (HCT-116): 0.1 µM

SMILES: CC[C@H]1CCC[C@H](O[C@H]2CC[C@H](N(C)CCCCCC[n+]3ccc4ccccc4c3)[C@@H](C)O2)[C@@H](C)C(=O)C2=C[C@@H]3[C@@H](C=C[C@@H]4C[C@@H](O[C@@H]5O[C@@H](C)[C@H](OC)[C@@H](OC)[C@H]5OC)C[C@@H]34)[C@@H]2CC(=O)O1.[Br-]
- Activity (NCI-H460 [2]): 6.98%
- inhibition (NCI-H460 [3]): Active
- inhibition (NCI-H460 [4]): inactive
- Activity [5]: Non-Toxic
- inhibition (NCI-H460 [6]): Active
- inhibition in vivo at 5 mg/kg (NCI-H460 [7]): 8.8%
- Activity (NCI-H460 [8]): Dose-dependent effect
- Activity (NCI-H460 [9]): 1.58%
- viability at 2 µM (NCI-H460 [10]): 84.4%
- IC50 (MCF7): 8.9 µM
- inhibition (NCI-H460 [11]): Dose-dependent effect
- IC50 (NCI-H460 [1]): 4.6 µM
- Activity (NCI-H460 [12]): 1.21%
- Activity (NCI-H460 [13]): 9.36%
- IC50 (U-87 MG): 2.5 µM
- Activity (NCI-H460 [14]): 20.7%
- inhibition (NCI-H460 [15]): inactive
- Activity (NCI-H460 [16]): 5.01%
- Activity [17]: Toxic
- inhibition (NCI-H460 [18]): 41%
- IC50 (HCT-116): 2.8 µM
- viability at 4 µM (NCI-H460 [19]): 70.7%

Second part, the compound after the results:

- IC50 (MCF7): 23.7 µM
SMILES: CC[C@H]1CCC[C@H](O[C@H]2CC[C@H](N(C)CCC[n+]3ccccc3)[C@@H](C)O2)[C@@H](C)C(=O)C2=C[C@@H]3[C@@H](C=C[C@@H]4C[C@@H](O[C@@H]5O[C@@H](C)[C@H](OC)[C@@H](OC)[C@H]5OC)C[C@@H]34)[C@@H]2CC(=O)O1

- IC50 (MCF7): > 100 µM
SMILES: CC[C@H]1CCC[C@H](O[C@H]2CC[C@H](N(C)CCC[n+]3cccc(C(N)=O)c3)[C@@H](C)O2)[C@@H](C)C(=O)C2=C[C@@H]3[C@@H](C=C[C@@H]4C[C@@H](O[C@@H]5O[C@@H](C)[C@H](OC)[C@@H](OC)[C@H]5OC)C[C@@H]34)[C@@H]2CC(=O)O1
